The results in this text go back to patent US3947584A, “Novel indolyl alkyl amines, method of producing same, and their use as anorectic agents” (Siegfried Aktiengesellschaft, priority 1972, dated 1976).

For one data set, the system named is Rat. In words: Anorexia, single oral application in rat (ED 50). The note with it: dissolved in equivalent quantities of HCl. The class given is in vivo. The source says:
(§1) The first column gives the respective two alkyl groups which are fixed in the α-position to the otherwise unsubstituted tryptamines.

Another data set concerns Mouse / Rat. Kind of data set: Therapeutic index (LD 50 mouse, oral / ED 50 rat, oral). The class given is in vivo.
Source text: as §1

A short description of data set [1]: Toxicity, single oral application in mouse (LD 50). Particulars: in vivo, dissolved in equivalent quantities of HCl.
Source text: as §1

The next data set in a line: Solubility. The note with it: in usual alcohols and in water; hydrochloride.

The ED50 is the dose that gives a 50% effect, or the effect in half of the subjects. A word on the LD50: it is the dose expected to kill half of the subjects tested. Take `CCCC(N)(CCC)Cc1c[nH]c2ccccc12` [Propyl, propyl, 3-(2'-propyl-2'-aminopentyl)-indole]: the ED50 with Rat is greater than 50 mg/kg. In addition, the “Therapeutic Index (LD 50 / ED 50)” value in the data set with Mouse / Rat is given as less than 18. For the same compound, in data set [1], the LD50 turned out to be 900 mg/kg.
For the compound `CCC(N)(CC)Cc1c[nH]c2ccccc12` [Ethyl, ethyl, 3-(2'-ethyl-2'-aminobutyl)-indole], in the data set with Rat, the ED50 was greater than 50 mg/kg. Moreover, in the data set on Mouse / Rat, the “Therapeutic Index (LD 50 / ED 50)” value is on record as less than 12. Also, in data set [1], the LD50 came out at 620 mg/kg.
Regarding `CCC(C)(N)Cc1c[nH]c2ccccc12` (stereo not shown) [Example 3, 3-(2'-amino-2'-methylbutyl)-indole], in “Solubility”, the solubility entry is “soluble very satisfactorily in usual alcohols and in water”.
For the compound `CCCC(C)(N)Cc1c[nH]c2ccccc12` (stereo not shown) [Methyl, propyl, 3-(2'-methyl-2'-aminopentyl)-indole], the ED50 in the data set on Rat was roughly 50 mg/kg. Moreover, the “Therapeutic Index (LD 50 / ED 50)” value with Mouse / Rat is on record as “approx. 11”. Besides, in data set [1], the LD50 was determined as 530 mg/kg.
The like results for `CC(C)(N)Cc1c[nH]c2ccccc12` [Methyl, methyl, α,α-dimethyl tryptamine, reference compound] were, in that order, 36 mg/kg, 9 and 320 mg/kg.
As for `CCC(C)(N)Cc1c[nH]c2ccccc12` (stereo not shown) [Methyl, ethyl, 3-(2'-amino-2'-methylbutyl)-indole], the 50% effective dose (ED50) with Rat is 15 mg/kg. Moreover, in the data set on Mouse / Rat, the “Therapeutic Index (LD 50 / ED 50)” value is recorded as 47. Further, the LD50 in data set [1] came to 700 mg/kg.
